The values that follow come from ChEMBL document CHEMBL4257221, “Peptides comprising non-natural amino acids and methods of making and using the same” (2016).

pEC50: −log10 of the molar value. Numbered stars: 1 amine (or outer) side, 2 acyl side, 3 side chain; on linkers, the order of the positions; unused ones are H or OH. Square brackets hold non-standard residues; d marks the D form. Peptide text beside a SMILES is read from it. ξ: configuration not given here. X1 = O=C([C@H]1CCC[C@@H]1N[*:1])[*:2]; X2 = O=C([C@H]1CNC[C@@H]1N[*:1])[*:2]; ξβ3hY = NC(CC(=O)O)Cc1ccc(O)cc1; ξβ3hL = CC(C)CC(N)CC(=O)O; ξβ3hK = NCCCCC(N)CC(=O)O; βAla = NCCC(=O)O

For test [1], the target named is T1, Vasoactive intestinal polypeptide receptor 1 (Homo sapiens, UniProt P32241).
T1 sequence (P32241 whole entry): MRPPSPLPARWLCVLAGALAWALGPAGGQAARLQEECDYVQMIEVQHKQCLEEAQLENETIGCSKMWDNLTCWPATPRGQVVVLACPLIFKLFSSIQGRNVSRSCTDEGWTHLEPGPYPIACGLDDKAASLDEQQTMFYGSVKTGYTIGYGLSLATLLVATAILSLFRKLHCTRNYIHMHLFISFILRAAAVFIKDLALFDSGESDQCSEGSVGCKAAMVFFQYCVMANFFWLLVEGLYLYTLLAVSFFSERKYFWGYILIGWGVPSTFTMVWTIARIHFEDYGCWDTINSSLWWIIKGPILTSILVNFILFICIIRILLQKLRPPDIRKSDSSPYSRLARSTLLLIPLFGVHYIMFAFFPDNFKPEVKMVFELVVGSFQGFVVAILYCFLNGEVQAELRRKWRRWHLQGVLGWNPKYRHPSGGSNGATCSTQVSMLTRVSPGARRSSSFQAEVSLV
Description: Agonist activity at human VIPR1 expressed in CHOK1 cells assessed as intracellular cAMP accumulation after 60 mins by PathHunter assay. Type of test: functional, cell-based. In general terms: Cyclic AMP is a second messenger, typically raised through Gs and lowered through Gi signalling.

Test [2] has as its target T2, Vasoactive intestinal polypeptide receptor 2 (Homo sapiens, UniProt P41587).
T2 sequence (P41587 whole entry): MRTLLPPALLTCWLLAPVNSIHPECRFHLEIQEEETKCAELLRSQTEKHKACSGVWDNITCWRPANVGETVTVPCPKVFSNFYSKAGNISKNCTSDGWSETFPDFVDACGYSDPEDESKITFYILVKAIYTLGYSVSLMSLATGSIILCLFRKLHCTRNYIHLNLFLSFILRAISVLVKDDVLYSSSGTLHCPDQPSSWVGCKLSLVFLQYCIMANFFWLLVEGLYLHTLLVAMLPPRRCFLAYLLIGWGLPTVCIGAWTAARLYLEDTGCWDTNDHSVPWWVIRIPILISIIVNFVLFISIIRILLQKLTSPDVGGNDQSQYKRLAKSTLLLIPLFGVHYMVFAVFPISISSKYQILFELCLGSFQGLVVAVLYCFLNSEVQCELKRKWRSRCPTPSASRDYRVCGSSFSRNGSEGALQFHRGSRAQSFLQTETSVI
Description: Agonist activity at human VIPR2 expressed in CHOK1 cells assessed as intracellular cAMP accumulation after 60 mins by PathHunter assay. Format: functional, cell-based.

A word on the pEC50: it is the EC50 on a negative log10 scale, so that one unit is a factor of ten. With `CC(=O)N[C@@H](Cc1cnc[nH]1)C(=O)N[C@@H](CO)C(=O)N[C@@H](CC(=O)O)C(=O)N[C@@H](C)C(=O)N[C@H](C(=O)N[C@@H](Cc1ccccc1)C(=O)N[C@H](C(=O)N[C@@H](CCC(=O)O)C(=O)N[C@@H](CC(N)=O)C(=O)N[C@@H](Cc1ccc(O)cc1)C(=O)N[C@H](C(=O)N[C@@H](CCCCN)C(=O)N[C@@H](CC(C)C)C(=O)N[C@@H](CCCNC(=N)N)C(=O)N[C@@H](CCCCN)C(=O)N[C@@H](CCC(N)=O)C(=O)N[C@@H](CC(C)C)C(=O)N[C@@H](C)C(=O)N[C@H]1CCC[C@@H]1C(=O)N[C@@H](CCCCN)C(=O)N[C@@H](CCCCN)C(=O)N[C@@H](Cc1ccc(O)cc1)C(=O)N[C@H]1CCC[C@@H]1C(=O)N[C@@H](CC(N)=O)C(=O)N[C@@H](CC(=O)O)C(=O)NC(CC(=O)N[C@@H](CCCCN)C(=O)N[C@@H](CCCCN)C(=O)NCC(=O)NCCC(=O)N[C@H](C(=O)O)[C@@H](C)O)CC(C)C)[C@@H](C)O)[C@@H](C)O)C(C)C` (stereo partly drawn) (Ac-HSDAVFTENYTKLRKQLA[X1]KKY[X1]ND[ξβ3hL]KKG[βAla]T-OH), the negative-log EC50 (pEC50) in test [1] was 8.04; in test [2] it was 6.98.
In the case of `CC[C@H](C)[C@H](NC(=O)[C@H](C)NC(=O)[C@H](CC(N)=O)NC(=O)CC(CC(C)C)NC(=O)[C@H](Cc1ccc(O)cc1)NC(=O)[C@H](CCCCN)NC(=O)[C@H](CCCCN)NC(=O)CC(NC(=O)[C@H](C)NC(=O)[C@H](CC(C)C)NC(=O)[C@H](CCC(N)=O)NC(=O)CC(CCCCN)NC(=O)[C@H](CCCNC(=N)N)NC(=O)[C@H](CC(C)C)NC(=O)[C@H](CCCNC(=N)N)NC(=O)CC(NC(=O)[C@H](Cc1ccc(O)cc1)NC(=O)[C@H](CC(N)=O)NC(=O)[C@H](CC(=O)O)NC(=O)[C@@H](NC(=O)[C@H](Cc1ccccc1)NC(=O)[C@@H](NC(=O)[C@H](C)NC(=O)[C@H](CC(=O)O)NC(=O)[C@@H](Cc1ccccc1)NC(=O)[C@@H](N)Cc1cnc[nH]1)C(C)C)[C@@H](C)O)C(C)O)C(C)C)C(=O)NC(CC(=O)N[C@@H](CC(N)=O)C(=O)O)CC(C)C` (stereo partly specified), the pEC50 in test [1] was 3.21; in test [2] it was 6.46.
With `CC(=O)N[C@@H](Cc1cnc[nH]1)C(=O)N[C@H]1CCC[C@@H]1C(=O)N[C@@H](CC(=O)O)C(=O)N[C@@H](C)C(=O)N[C@H]1CCC[C@@H]1C(=O)N[C@@H](Cc1ccccc1)C(=O)N[C@H](C(=O)N[C@@H](CCC(=O)O)C(=O)N[C@H]1CCC[C@@H]1C(=O)NC(CC(=O)N[C@H](C(=O)N[C@@H](CCCCN)C(=O)N[C@@H](CC(C)C)C(=O)N[C@@H](CCCNC(=N)N)C(=O)N[C@@H](CCCCN)C(=O)N[C@@H](CCC(N)=O)C(=O)NC(CC(=O)N[C@@H](C)C(=O)N[C@@H](C)C(=O)N[C@H]1CNC[C@@H]1C(=O)N[C@@H](CCCCN)C(=O)N[C@@H](Cc1ccc(O)cc1)C(=O)N[C@H]1CCC[C@@H]1C(=O)N[C@@H](CC(N)=O)C(=O)N[C@@H](CC(=O)O)C(=O)N[C@@H](CC(C)C)C(=O)NC(CCCCN)CC(=O)N[C@@H](CCCCN)C(=O)NCC(=O)NCCC(=O)N[C@H](C(=O)O)[C@@H](C)O)CC(C)C)[C@@H](C)O)Cc1ccc(O)cc1)[C@@H](C)O` (stereo partly drawn) (Ac-H[X1]DA[X1]FTE[X1][ξβ3hY]TKLRKQ[ξβ3hL]AA[X2]KY[X1]NDL[ξβ3hK]KG[βAla]T-OH), the values for the pEC50 in test [1] and in test [2] were 6.10 and 8.93, respectively.
As for `CC(=O)N[C@@H](Cc1cnc[nH]1)C(=O)N[C@H]1CCC[C@@H]1C(=O)N[C@@H](CC(=O)O)C(=O)N[C@@H](C)C(=O)N[C@H](C(=O)N[C@@H](Cc1ccccc1)C(=O)N[C@H](C(=O)N[C@@H](CCC(=O)O)C(=O)N[C@@H](CC(N)=O)C(=O)N[C@@H](Cc1ccc(O)cc1)C(=O)N[C@H](C(=O)N[C@@H](CCCCN)C(=O)N[C@@H](CC(C)C)C(=O)N[C@@H](CCCNC(=N)N)C(=O)N[C@@H](CCCCN)C(=O)N[C@@H](CCC(N)=O)C(=O)N[C@@H](CC(C)C)C(=O)N[C@@H](C)C(=O)N[C@@H](C)C(=O)N[C@H]1CNC[C@@H]1C(=O)N[C@@H](CCCCN)C(=O)N[C@@H](Cc1ccc(O)cc1)C(=O)N[C@H]1CCC[C@@H]1C(=O)N[C@@H](CC(N)=O)C(=O)N[C@@H](CC(=O)O)C(=O)N[C@@H](CC(C)C)C(=O)NC(CCCCN)CC(=O)N[C@@H](CCCCN)C(=O)NCC(=O)NCCC(=O)N[C@H](C(=O)O)[C@@H](C)O)[C@@H](C)O)[C@@H](C)O)C(C)C` (stereo partly drawn) (Ac-H[X1]DAVFTENYTKLRKQLAA[X2]KY[X1]NDL[ξβ3hK]KG[βAla]T-OH), the negative-log EC50 (pEC50) in test [1] was less than 6.00; in test [2] it was 9.23.
With `CC(=O)N[C@@H](Cc1cnc[nH]1)C(=O)N[C@@H](CO)C(=O)N[C@@H](CC(=O)O)C(=O)N[C@@H](C)C(=O)N[C@H](C(=O)N[C@@H](Cc1ccccc1)C(=O)N[C@H](C(=O)N[C@@H](CCC(=O)O)C(=O)N[C@@H](CC(N)=O)C(=O)N[C@@H](Cc1ccc(O)cc1)C(=O)N[C@H](C(=O)N[C@@H](CCCCN)C(=O)N[C@@H](CC(C)C)C(=O)N[C@@H](CCCNC(=N)N)C(=O)N[C@@H](CCCCN)C(=O)N[C@@H](CCC(N)=O)C(=O)N[C@@H](CC(C)C)C(=O)N[C@@H](C)C(=O)N[C@@H](C)C(=O)N[C@H]1CNC[C@@H]1C(=O)N[C@@H](CCCCN)C(=O)N[C@@H](Cc1ccc(O)cc1)C(=O)N[C@H]1CCC[C@@H]1C(=O)N[C@@H](CC(N)=O)C(=O)N[C@@H](CC(=O)O)C(=O)N[C@@H](CC(C)C)C(=O)NC(CCCCN)CC(=O)N[C@@H](CCCCN)C(=O)NCC(=O)NCCC(=O)N[C@H](C(=O)O)[C@@H](C)O)[C@@H](C)O)[C@@H](C)O)C(C)C` (stereo partly drawn) (Ac-HSDAVFTENYTKLRKQLAA[X2]KY[X1]NDL[ξβ3hK]KG[βAla]T-OH), the pEC50 is less than 6.00 in test [1] and 9.02 in test [2].
As for `CC[C@H](C)[C@H](NC(=O)[C@H](C)NC(=O)[C@H](CC(N)=O)NC(=O)CC(CC(C)C)NC(=O)[C@H](Cc1ccc(O)cc1)NC(=O)[C@H](CCCCN)NC(=O)[C@H](CCCCN)NC(=O)CC(NC(=O)[C@H](C)NC(=O)[C@H](CC(C)C)NC(=O)[C@H](CCC(N)=O)NC(=O)CC(CCCCN)NC(=O)[C@H](CCCNC(=N)N)NC(=O)[C@H](CC(C)C)NC(=O)[C@H](CCCNC(=N)N)NC(=O)CC(NC(=O)[C@H](Cc1ccc(O)cc1)NC(=O)[C@H](CC(N)=O)NC(=O)[C@H](CC(=O)O)NC(=O)[C@@H](NC(=O)[C@H](Cc1ccccc1)NC(=O)CC(NC(=O)[C@H](C)NC(=O)[C@H](CC(=O)O)NC(=O)[C@@H](Cc1ccccc1)NC(=O)[C@@H](N)Cc1cnc[nH]1)C(C)C)[C@@H](C)O)C(C)O)C(C)C)C(=O)NC(CC(=O)N[C@@H](CC(N)=O)C(=O)O)CC(C)C` (stereo partly specified), the pEC50 is 7.15 in test [1] and 7.30 in test [2].
The like results for `CC(=O)N[C@@H](Cc1cnc[nH]1)C(=O)N[C@H]1CCC[C@@H]1C(=O)N[C@@H](CC(=O)O)C(=O)N[C@@H](C)C(=O)N[C@H]1CCC[C@@H]1C(=O)N[C@@H](Cc1ccccc1)C(=O)N[C@H](C(=O)N[C@@H](CCC(=O)O)C(=O)N[C@H]1CCC[C@@H]1C(=O)NC(CC(=O)N[C@H](C(=O)N[C@@H](CCCCN)C(=O)N[C@@H](CC(C)C)C(=O)N[C@@H](CCCNC(=N)N)C(=O)N[C@@H](CCCCN)C(=O)NCCC(=O)N[C@@H](CC(C)C)C(=O)N[C@@H](C)C(=O)N[C@@H](C)C(=O)N[C@H]1CNC[C@@H]1C(=O)N[C@@H](CCCCN)C(=O)N[C@@H](Cc1ccc(O)cc1)C(=O)N[C@H]1CCC[C@@H]1C(=O)N[C@@H](CC(N)=O)C(=O)N[C@@H](CC(=O)O)C(=O)N[C@@H](CC(C)C)C(=O)NC(CCCCN)CC(=O)N[C@@H](CCCCN)C(=O)NCC(=O)NCCC(=O)N[C@H](C(=O)O)[C@@H](C)O)[C@@H](C)O)Cc1ccc(O)cc1)[C@@H](C)O` (stereo partly drawn) (Ac-H[X1]DA[X1]FTE[X1][ξβ3hY]TKLRK[βAla]LAA[X2]KY[X1]NDL[ξβ3hK]KG[βAla]T-OH) were, in that order, less than 6.00 and 8.99.
For the compound `CC(=O)N[C@@H](Cc1cnc[nH]1)C(=O)N[C@H]1CCC[C@@H]1C(=O)N[C@@H](CC(=O)O)C(=O)N[C@@H](C)C(=O)N[C@H]1CCC[C@@H]1C(=O)N[C@@H](Cc1ccccc1)C(=O)N[C@H](C(=O)N[C@@H](CCC(=O)O)C(=O)N[C@H]1CCC[C@@H]1C(=O)NC(CC(=O)N[C@H](C(=O)N[C@@H](CCCCN)C(=O)N[C@@H](CC(C)C)C(=O)N[C@@H](CCCNC(=N)N)C(=O)NC(CCCCN)CC(=O)N[C@@H](CCC(N)=O)C(=O)N[C@@H](CC(C)C)C(=O)N[C@@H](C)C(=O)N[C@@H](C)C(=O)N[C@H]1CNC[C@@H]1C(=O)N[C@@H](CCCCN)C(=O)N[C@@H](Cc1ccc(O)cc1)C(=O)N[C@H]1CCC[C@@H]1C(=O)N[C@@H](CC(N)=O)C(=O)N[C@@H](CC(=O)O)C(=O)N[C@@H](CC(C)C)C(=O)NC(CCCCN)CC(=O)N[C@@H](CCCCN)C(=O)NCC(=O)NCCC(=O)N[C@H](C(=O)O)[C@@H](C)O)[C@@H](C)O)Cc1ccc(O)cc1)[C@@H](C)O` (stereo partly drawn) (Ac-H[X1]DA[X1]FTE[X1][ξβ3hY]TKLR[ξβ3hK]QLAA[X2]KY[X1]NDL[ξβ3hK]KG[βAla]T-OH), the pEC50 in test [1] was 6.34; in test [2] it was less than 6.00.
